Target: human DNA (cytosine-5)-methyltransferase I (DNMT1), Δ501DNMT1 (Homo sapiens, UniProt P26358)
Type: biochemical

Sequence of human DNA (cytosine-5)-methyltransferase I (DNMT1), Δ501DNMT1 (P26358 502-1616, stated change not applied): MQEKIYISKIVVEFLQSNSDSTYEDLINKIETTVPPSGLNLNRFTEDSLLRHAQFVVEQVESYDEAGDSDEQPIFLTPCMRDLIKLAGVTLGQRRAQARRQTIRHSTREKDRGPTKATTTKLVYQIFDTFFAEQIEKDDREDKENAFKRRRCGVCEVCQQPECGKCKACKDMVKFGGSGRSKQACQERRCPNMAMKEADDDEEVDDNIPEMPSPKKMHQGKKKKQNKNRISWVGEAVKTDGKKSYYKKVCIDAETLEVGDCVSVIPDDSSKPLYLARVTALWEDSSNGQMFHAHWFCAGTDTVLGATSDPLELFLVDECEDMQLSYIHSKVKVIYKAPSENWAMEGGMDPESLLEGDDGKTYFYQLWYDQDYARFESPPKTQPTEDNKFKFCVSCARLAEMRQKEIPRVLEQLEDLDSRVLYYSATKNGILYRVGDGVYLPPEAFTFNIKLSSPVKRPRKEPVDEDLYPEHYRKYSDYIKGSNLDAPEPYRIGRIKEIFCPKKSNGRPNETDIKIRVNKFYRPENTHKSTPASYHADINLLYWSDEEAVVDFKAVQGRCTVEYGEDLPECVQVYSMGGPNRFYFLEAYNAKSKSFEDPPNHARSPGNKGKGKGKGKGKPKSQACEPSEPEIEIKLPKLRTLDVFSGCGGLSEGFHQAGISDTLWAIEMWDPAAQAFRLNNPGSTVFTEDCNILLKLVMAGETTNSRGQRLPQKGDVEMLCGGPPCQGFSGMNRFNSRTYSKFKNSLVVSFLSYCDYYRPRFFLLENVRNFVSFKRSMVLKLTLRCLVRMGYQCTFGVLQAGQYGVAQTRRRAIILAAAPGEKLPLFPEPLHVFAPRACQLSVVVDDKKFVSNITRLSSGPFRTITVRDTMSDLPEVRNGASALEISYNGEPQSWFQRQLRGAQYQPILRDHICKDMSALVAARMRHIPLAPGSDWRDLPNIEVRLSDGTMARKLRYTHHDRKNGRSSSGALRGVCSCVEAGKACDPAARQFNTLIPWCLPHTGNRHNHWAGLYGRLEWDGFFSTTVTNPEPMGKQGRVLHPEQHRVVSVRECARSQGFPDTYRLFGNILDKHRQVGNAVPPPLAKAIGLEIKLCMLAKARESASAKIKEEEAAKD

IC50: 3 mM
SMILES: Nc1ncnc2c1ncn2[C@@H]1O[C@H](CO)[C@@H](O)[C@H]1O [adenosine]

From article PMC2854261 (Analytical biochemistry, 2010)
